Here are results for one compound from paper PMC3006138, “Fexinidazole – A New Oral Nitroimidazole Drug Candidate Entering Clinical Development for the Treatment of Sleeping Sickness” (PLoS Neglected Tropical Diseases, 2010).

A short description of data set [1]: Irwin's test of general behaviour and body temperature. The data set is classed as in vivo, rat. The protocol: Neurobehavioural safety was carried out using the Irwin's test of general behaviour and body temperature in male rats, [41]. […] General behaviour was assessed before treatment and 2 h and 24 h after vehicle or drug administration. A defined set of behavioural observations using an arbitrary intensity scale of 0 (no behavioural change) to 8 was made before treatment and 2 h and 24 h after treatment. Factors present in normal animals (e.g. alertness, mobility) were scored as 4; potentiation or depression of these factors was indicated as higher or lower integers, respectively. Factors absent in normal animals were scored from 0 (normal) to 8.
Exp. Treatment(a) Dose Number of Session (mg/kg) Animals/Group
(a) Three animals/group were dosed each day of study.
6.3.2. Allocation/Randomization
The animals were selected and distributed into experimental groups using random number tables (Fisher and Yates).
6.3.3. Dose Administration
Route and Method Oral, gastric gavage
Dosage volumes were adjusted to the individual animal body weights recorded on the day of […]
6.3.4. Dose Justification
In this study, the top dose of […]
dose went from 500 to 1000 mg/kg/day.
6.4. Experimental procedure
6.4.1. Behavioral observations
Behavior of the animals was assessed before treatment, 2 hours and 24 hours after treatment.
After treatment, animals were put in their home cages. Observation was performed in 5 steps:
• Home cage observations: piloerection, bizarre behavior, exophthalmus, respiration, tremors, twitches, convulsions
Nerviano Medical Sciences

Data set [2] is described as follows: Whole-body autoradiography. Format: in vivo, rat. As to the method: Whole-body autoradiography in rats was conducted using [^14C]-radiolabelled fexinidazole. The site of the [^14C] label in the fexinidazole molecule on the bridging carbon atom ensured that the radioactivity would remain associated with both the sulfoxide and sulfone metabolites. The radiolabelled compound was administered at the dose of 800 mg/kg (approximately 3.7 MBq/kg, 100 µCi/kg) by gastric gavage to eight male albino Sprague Dawley rats. Two animals were sacrificed at each time point 2, 8, 24 or 48 h after administration and the quantitative radioactivity distribution in the organs and tissues was evaluated using quantitative whole-body autoradiography. […]
This study was conducted according to Protocol N° 0510-2007. A copy of the experimental protocol is included in Appendix 1.
FEXINIDAZOLE is a 5-nitroimidazole derivative biologically active against Trypanosoma parasites (T.b. rhodesiense and T.b. brucei) and useful in the treatment of the Human African Trypanosomiasis (HAT), known as sleeping sickness.
FEXINIDAZOLE is a compound currently under development by the Study Sponsor.
The objective of this study was to obtain information on the tissue distribution of radioactive drug-related material following oral administration of [14C]-FEXINIDAZOLE (800 mg/kg) to male Sprague Dawley rats.
The albino Sprague Dawley rat was chosen as the species for this study since it was one of the species used in the toxicological evaluation of the test compound. Only male animals were used as no gender differences were expected with respect to the aim of the study. The oral route of administration was chosen as this is the intended therapeutic route. The dose level was selected in agreement with the Study Sponsor and it is within the pharmacological relevant range. No overt toxicity was expected after single dosing at […]
The study was conducted on 8 male animals after single oral administration of [14C]- FEXINIDAZOLE (800 mg/kg, approximately 3.7 MBq/kg, 100 µCi/kg). The animals were sacrificed at 2, 8,24 and 48 hours after administration and each rat was analyzed by a validated Whole Body Autoradioluminography (WBA) method, in order to evaluate the quantitative tissue distribution of radioactivity.
A summary of the experimental design is reported below:
Animal no. Date of Dosing Administered Dose Samples collected and (oral administration) analyzed
M3, M4 100 µCi/kg Whole body sections
The experimental phase of the study started on June 10, 2008 and was completed on July […]
6.6. Preparation and Analysis of Dose Formulation
The test formulation was prepared on the day of dosing by suspending unlabelled FEXINIDAZOLE and [14C]-FEXINIDAZOLE (see section 6.1) in 5% Tween 80 and 0.5% Methyl cellulose 400 cP (Methocel) in water, in order to obtain [14C]- FEXINIDAZOLE at the final target concentration of 80 mg/mL, corresponding to a radioactivity concentration of about 370 kBq/mL (10 µCi/mL).
The test formulation was prepared by suspending an appropriate amount of unlabelled FEXINIDAZOLE in the dose vehicle. This formulation was homogenised using a Potter-Elvehjem homogenizer apparatus (teflon pestle of approx. 30 mm x 53 mm and glass tube of 40 mL), in order to obtain a fine suspension by up-and-down strokes, gently made by hand. The formulation was then collected and transferred from the homogeniser glass tube to the glass pot containing the [14C]-FEXINIDAZOLE.
During the preparation the test formulation was protected from light as far as possible.
The radioactivity concentration and homogeneity of the test formulation were determined, before administration, by liquid scintillation counting of triplicate weighed aliquots of test formulation. The radiolabelled test formulation was used immediately after formulation.
6.7.1. Administered Doses
The dose of [14C]-FEXINIDAZOLE was orally administered by gastric gavage at the target dose level of 800 mg/kg (radioactivity dose of about 3.7 MBq/kg, 100 µCi/kg) and at a target dose volume of about 10 mL/kg. […]

Several values for one entry are separate records, joined by “and”; a condition that tells them apart may be missing. Equal entries are not always repeated. Entries after “also recorded” stand apart in the source; their conditions may differ.

With `CSc1ccc(OCc2ncc([N+](=O)[O-])n2C)cc1` [Fexinidazole, 1-methyl-2-((p-(methylthio)phenoxy)methyl)-5-nitroimidazole], the Body temperature in data set [1] (100 mg/kg, 2 hours) was 38.3 ± 0.3 °C; in data set [1] (100 mg/kg, 24 hours) it was 38.2 ± 0.3 °C; in data set [1] (300 mg/kg, 2 hours) it was 38.1 ± 0.5 °C; in data set [1] (300 mg/kg, 24 hours), 37.9 ± 0.6 °C; in data set [1] (1000 mg/kg, 2 hours), 38.3 ± 0.3 °C; in data set [1] (1000 mg/kg, 24 hours), 38.1 ± 0.3 °C. Moreover, the “effects on general behaviour and body temperature” value in data set [1] (100, 300 or 1000 mg/kg po) was “no meaningful effects; also recorded: no effects were observed”. For the same compound, the “No-Observed-Effect-Level on general behavior and body temperature” value in data set [1] (single oral dose) is given as not below 1000 mg/kg. Besides, in data set [2] (800 mg/kg po, all times), the “brain-to-blood concentration ratio of radioactivity” value is 0.4–0.6. Moreover, the Mean radioactivity concentration in data set [2] (Blood, 2h) is 303.2 µgeq/g; in data set [2] (Blood, 8h) it was 273.0 µgeq/g; in data set [2] (Blood, 24h) it was 51.3 µgeq/g; in data set [2] (Blood, 48h), 14.3 µgeq/g; in data set [2] (Brain, 2h), 159.7 µgeq/g; in data set [2] (Brain, 8h), 148.5 µgeq/g. In addition, the Mean radioactivity concentration in data set [2] (Brain, 24h) turned out to be 22.4 µgeq/g; in data set [2] (Brain, 48h) it was 5.7 µgeq/g. Also, the Radioactivity concentration in data set [2] (Intestine wall, 2h, listed as [14C]-FEXINIDAZOLE) was 4900 - 5600 µgeq/g and 5281.4 µgeq/g.
